Publication PMC6754136 (PLoS ONE, 2019)

Legend:
[1] = biological target: purified recombinant human PDE5 (Homo sapiens, UniProt O76074); assay: in vitro PDE5 inhibition assay measuring GMP production from cGMP (HPLC-UV-MS); type: biochemical; conditions: 1 nM PDE5 catalytic domain, 0.3 μM cGMP, 25 °C, 15 min; mean of at least three replicates ± SEM; read-out: IC50
Method: STRENDA guidelines were considered in the description of the following enzyme activity assays. PDE5 inhibition and kinetics assays were carried out according to the method of Kincaid and Manganiello [31] and Dell’Agli et al. 1 nM recombinant human PDE5 (catalytic domain consisting of amino acids 537–875, Abcam, ab125581) was pre-incubated with PDE5 inhibitors (synthesized in-house as described above or purchased from Selleck Chemicals) in 40 mM tris-hydrochloric acid, pH 7.8, containing 10 mM MgCl2. […]. PDE5 inhibitors were added to each reaction using a Hewlett-Packard D300 Digital Dispenser (Tecan). Maximum DMSO concentration was 0.1% of the final reaction volume for all samples. After incubation at 25 °C for 5 minutes to allow interaction between PDE5 and drugs, the reaction was started with the addition of 0.3 μM cGMP (Enzo Life Sciences, Inc.) and incubated at 25 °C for 15 minutes. The final reaction volume was 100 μL. Reactions were stopped with the addition of 100 μL of 0.1 M HCl and neutralized by adding 0.1 M NaOH until the pH was 7. […] The amount of GMP produced was measured by HPLC-UV-MS as described in the general procedures. Reaction mixture components were separated with a ramp gradient of solvent A and B run at a flow rate of 0.5 mL/min as follows: 0–4 minutes 0% B, 4–7 minutes 0–95% B, 7–8 minutes 95% B, 8–11.1 minutes 0% B. GMP was measured using selected reaction monitoring in positive mode for a centroid center mass of 152.
A calibration curve using known concentrations of GMP was generated using the HPLC-UV-MS method described above to quantify the absolute amount of GMP in each reaction (S13 Fig). The linear range was from 5.9 nM to 3 μM. The limit of detection (LOD), defined as the lowest concentration producing a detectable peak above background, was 0.1 nM. The lower limit of quantification (LLOQ), defined as the lowest concentration used to generate a standard curve with r^2 > 0.95, was 5.9 nM. The upper limit of quantification (ULOQ), defined as the highest concentration used to generate a standard curve with r^2 > 0.95, was 3 μM. A GMP calibration curve was generated with each individual run of the HPLC-UV-MS.
To measure the IC50 as a result of treatment with each icariin analog, the in vitro inhibition enzyme assay as described above was performed, and GMP levels were normalized to no-drug controls and multiplied by 100 to obtain the percent PDE5 activity. IC50 mean ± SEM values were determined by nonlinear-regression fitting of the percent PDE5 activity data using the [inhibitor] vs response–variable slope (four parameters) equation in Prism (version 7.0a and version 8). Top value was constrained to 100, all other parameters were unconstrained. To obtain the dose-response curves for visual confirmation of the best-fit line, we executed a nonlinear regression fitting using the log(inhibitor) vs. response—variable slope (four parameters) equation in Prism. […] AICc analysis (built into Prism) was used to confirm the best-fitting inhibition model. […] Inhibition models were also compared via visual inspection of the fit of the calculated curves on the Michaelis-Menten plots.

BJ-hTERT cells = assay: cellular GMP levels after inhibitor treatment; type: cell-based, human; conditions: 20 μM inhibitor, 1 hour; mean ± SEM; p<0.001
Method: For assaying PDE5 inhibitor effects on GMP levels in a cell line, BJ-hTERT cells were plated in 6-well plates (Corning) in the media described above. When cells were 80% confluent, fresh, pre-warmed media with DMSO (untreated controls) or 20 μM sildenafil, 3, or 7 was added and incubated for 1 hour. Maximum DMSO concentration in all samples was 0.2% of the total well volume. Cells were washed once with cold 0.9% NaCl. 800 μL of 80:20 methanol:water spiked with 500 nM isotopically labeled amino acids as internal standards was added while cells were on dry ice. Cells were detached with a cell scraper. Extracts were vortexed for 10 minutes and centrifuged at maximum speed at 4 °C to remove debris. Extracts were dried down in a vacuum dryer and stored at -80 °C. An additional sample was reserved for visual inspection of cell health by confocal light microscopy and for cell counting with a hemocytometer. Three independent assays were conducted in total, with 1–2 replicates per assay. To analyze GMP levels, samples were reconstituted in 50 μL LC-MS grade water and analyzed by HPLC-UV-MS as described in the general procedures and for enzyme inhibition and kinetics assays. The amino acid standards were analyzed in full scan positive mode with mass windows m/z 50–800. GMP peak areas were normalized to the peak area of the internal standard ^13C4, ^15N-threonine or ^13C6, ^15N3-histidine to account for variations in extraction or resuspension volume. The peak areas were then normalized to the average GMP peak area in undrugged controls and multiplied by 100 to obtain the percent GMP.

[2] = biological target: T1, partially purified recombinant human PDE6C (Homo sapiens, UniProt P51160); assay: PDE6C inhibition assay (GMP production); type: biochemical
T1 construct: partially purified recombinant full-length human PDE6C; purchased SB Drug Discovery; host or cells: insect cells
T1 sequence (P51160 whole entry): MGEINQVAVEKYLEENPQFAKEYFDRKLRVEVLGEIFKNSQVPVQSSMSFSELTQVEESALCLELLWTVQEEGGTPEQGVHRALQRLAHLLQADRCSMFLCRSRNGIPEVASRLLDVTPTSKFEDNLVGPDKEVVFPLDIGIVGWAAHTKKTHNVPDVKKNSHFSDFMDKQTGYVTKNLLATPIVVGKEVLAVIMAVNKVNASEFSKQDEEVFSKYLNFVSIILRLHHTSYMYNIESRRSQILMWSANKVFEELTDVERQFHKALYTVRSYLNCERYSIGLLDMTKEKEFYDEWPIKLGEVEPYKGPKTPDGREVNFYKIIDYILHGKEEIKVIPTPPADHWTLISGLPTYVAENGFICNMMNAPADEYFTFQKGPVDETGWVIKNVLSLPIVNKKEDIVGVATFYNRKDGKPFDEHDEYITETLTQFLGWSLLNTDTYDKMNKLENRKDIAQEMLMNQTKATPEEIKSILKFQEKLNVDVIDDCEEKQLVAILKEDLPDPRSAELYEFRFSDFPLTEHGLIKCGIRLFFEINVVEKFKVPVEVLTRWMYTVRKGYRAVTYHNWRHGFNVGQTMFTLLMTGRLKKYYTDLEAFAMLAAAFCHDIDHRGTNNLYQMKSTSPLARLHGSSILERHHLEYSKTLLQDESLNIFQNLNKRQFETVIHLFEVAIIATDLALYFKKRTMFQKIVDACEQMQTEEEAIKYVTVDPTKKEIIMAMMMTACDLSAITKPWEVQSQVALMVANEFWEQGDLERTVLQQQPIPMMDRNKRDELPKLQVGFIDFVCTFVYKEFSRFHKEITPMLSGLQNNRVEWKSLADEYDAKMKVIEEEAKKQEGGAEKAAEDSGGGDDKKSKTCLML
Method: PDE6C inhibition was measured using the same method as described for PDE5 with modifications. […] The final reaction volume was 50 μL. […] Reactions were stopped as described above for PDE5 enzyme assays, and GMP was quantified as described above. […] The amount of GMP produced in these samples was subtracted from all samples before normalizing against untreated controls.

- IC50 [1]: 0.14 ± 0.06 µM
- specificity for PDE5 over PDE6C [2]: does not show this specificity
- PDE6C inhibition, statistical significance ([2]; at 50x the PDE5 IC50, vs theoretical uninhibited mean of 100%): significantly inhibits PDE6C activity
Compound: COc1ccc(-c2oc3c(CC=C(C)C)c(O)cc(O)c3c(=O)c2OCCCO)cc1 [Compound 7, 3-O-(3-Hydroxypropyl)-Icaritin]
- cellular GMP concentration, % of the GMP concentration in untreated control cells (BJ-hTERT cells): 13 ± 2%
